{"source": "patent US20080200555A1", "about": "“USE OF NOREPINEPHRINE REUPTAKE INHIBITORS FOR THE TREATMENT OF TIC DISORDERS” (priority 2001, published 2008)", "assay": "Case report: atomoxetine treatment of a person with ADHD and tics (Example 1)", "format": "in vivo, human", "description": "A person presented with ADHD and tics. […] At baseline, the tics included multiple motor and multiple vocal tics, some complex or in bouts. Their vocal tics were especially problematic and disruptive, causing difficulties for the child at school, in social situations, and when the family went out in public (for example, to a restaurant). The clinical global impression-severity score (CGI-S) is a seven-point scale (1=normal, 7=very severely ill) that summarizes a clinician's overall impression about how severe a patient's illness is compared to other patients the clinician has treated. Based on the parent's report, the retrospective CGI-S score for the child's tics at baseline was 5, markedly ill. The YGTSS is the Yale Global Tic Severity Scale and summarizes the number, severity and frequency of a patient's tics. The minimum score on the YGTSS is zero and the maximum is 50. Based on the parent's description the patient's baseline YGTSS was about 30.\nAfter about 2 to 3 weeks of atomoxetine treatment, the patient's parent reported a single head tic and a few eye blinking tics in the previous week, and no vocal tics. The parent also reported that the patient's complex tics or compulsive behaviors (which had involved them playing with some doors with their feet in a somewhat stereotypical manner), had also stopped. […] The CGI-S score for the child's tics based on the interview with their parent was […], minimally ill. Based on the same interview, the YGTSS total score for the child was 8. The clinical global impression-improvement (CGI-I) score is a seven-point scale (1=very much improve, 7=very much worse) that summarizes a clinician's overall impression about how much a patient has improved with treatment as compared to where they were at baseline. The CGI-I score for the patient's tics was 1, very much improved.", "key": {"[1]": {"details": "after about 2 to 3 weeks of atomoxetine treatment"}}, "data": [{"smiles": "CNCC[C@@H](Oc1ccccc1C)c1ccccc1", "note": "[atomoxetine, (R)-(−)-N-methyl-3-(2-methylphenoxy)-3-phenylpropylamine]", "values": [{"measurement": "complex tics or compulsive behaviors (mother's report)", "setting": "[1]", "result": "stopped"}, {"measurement": "vocal tics in the previous week (mother's report)", "setting": "[1]", "result": "no vocal tics"}, {"measurement": "YGTSS (Yale Global Tic Severity Scale) total score", "setting": "person with ADHD and tics, after about 2 to 3 weeks of atomoxetine treatment, scale 0 to 50, baseline about 30", "result": 8}, {"measurement": "clinical global impression-severity score (CGI-S) for the child's tics", "setting": "person with ADHD and tics, after about 2 to 3 weeks of atomoxetine treatment, seven-point scale (1=normal, 7=very severely ill), baseline 5", "result": 2, "unit": "a"}, {"measurement": "change in tics after starting treatment", "setting": "person with ADHD and tics, after starting on atomoxetine", "result": "dramatic drop"}, {"measurement": "ADHD", "setting": "person with ADHD and tics, on atomoxetine treatment", "result": "improved"}, {"measurement": "clinical global impression-improvement (CGI-I) score for the patient's tics", "setting": "person with ADHD and tics, seven-point scale (1=very much improve, 7=very much worse), compared to baseline", "result": 1}]}]}
